What all share (assay): NCI-60 cell line screen, 48 h
The subject of experiment [1] is HL-60.
Experiment [2] deals with MCF7.
In experiment [3] the test system is OVCAR-5.
Experiment [4] relates to SN12C.
The subject of experiment [5] is SK-OV-3.
The test system of experiment [6] is SR.
The subject of experiment [7] is CCRF-CEM.
The subject of experiment [8] is OVCAR-3.
In experiment [9] the test system is SNB-19.
Experiment [10] has as its system HOP-92.
In experiment [11] the test system is NCI-H460.
Experiment [12] deals with SF-539.
Experiment [13] has as its system A549.
Experiment [14] deals with NCI/ADR-RES.
Experiment [15] has as its system T47D.
Experiment [16] has as its system SW-620.
Experiment [17] has as its system KM12.
For experiment [18], the system named is NCI-H23.
Experiment [19] relates to ACHN.

Each structure is given as a SMILES string.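 A five-concentration, 48-hour dose response in 96-well plates underlies each endpoint, interpolated linearly between surrounding concentrations. Here, GI50 denotes the concentration required for 50% inhibition of growth.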 Activity calls are given as the source filed them. Cut-off read from the data, not from the text of the source: active = GI50 up to about 1.1 µM and inactive = higher.

As for `Nc1nc(N)c(-c2cccc(C(F)(F)F)c2)c(Cc2cccc(C(F)(F)F)c2)n1`, the GI50 is 2.2 µM (inactive) in experiment [1]; 3.84 µM (inactive) in experiment [2]; 3.48 µM (inactive) in experiment [3]; 3.54 µM (inactive) in [4]; 8.97 µM (inactive) in [5]; 1.25 µM (inactive) in [6]. Moreover, the GI50 in experiment [7] is 6.92 µM (inactive); in experiment [8], 6.03 µM (inactive); in experiment [9], 5.7 µM (inactive); in experiment [10] it was 12.2 µM (inactive); in [11], 0.604 µM (active); in [12], 4.41 µM (inactive). Also, the GI50 is 0.628 µM (active) in experiment [13]; 7.57 µM (inactive) in experiment [14]; 12.8 µM (inactive) in [15]; 7.33 µM (inactive) in [16]; 5.15 µM (inactive) in experiment [17]; 2.01 µM (inactive) in [18]. Further, the GI50 in [19] is 2.65 µM (inactive).
Consider `N[C@H](Cc1ccc2oc3cc(=O)c4ccccc4c-3nc2c1)C(=O)O`, for which the GI50 in [1] was 27.7 µM (inactive); in experiment [2] it was 28.5 µM (inactive); in experiment [3], 65.9 µM (inactive); in [4], 42.5 µM (inactive); in [5], > 100 µM (inactive); in [6] it was 17.9 µM (inactive). Moreover, the GI50 in experiment [7] was 20.9 µM (inactive); in [8], 29.2 µM (inactive); in [9] it was 34.4 µM (inactive); in experiment [10], > 100 µM (inactive); in experiment [11], 25.9 µM (inactive); in experiment [12], 42.8 µM (inactive). Moreover, the GI50 in [13] was 33.7 µM (inactive); in experiment [14] it was > 100 µM (inactive); in experiment [15] it was > 100 µM (inactive); in [16] it was 46.7 µM (inactive); in experiment [17] it was 37.3 µM (inactive); in [18] it was 23.7 µM (inactive). Moreover, the GI50 in experiment [19] was > 100 µM (inactive).
In the case of `NCCC1([N+](=O)[O-])CCNCC1`, the GI50 in experiment [1], in experiment [2], in experiment [3], in experiment [4], in experiment [5] and in experiment [6] was > 100 µM (inactive) each time. The GI50 in experiment [7], in experiment [8], in experiment [9], in experiment [10], in [11] and in experiment [12] was > 100 µM (inactive) each time. Moreover, the GI50 in [13], in [14], in experiment [15], in experiment [16], in experiment [17] and in [18] was > 100 µM (inactive) in each case. Further, in experiment [19], the GI50 is > 100 µM (inactive).
Regarding `O=C1c2ccccc2CN1c1ccc(O)cc1`, the GI50 in experiment [1], in [2], in experiment [3], in experiment [4], in [5] and in experiment [6] was > 100 µM (inactive) throughout. The GI50 in experiment [7], in experiment [8], in experiment [9], in [10], in experiment [11] and in experiment [12] was > 100 µM (inactive) each time. Moreover, the GI50 in experiment [13], in experiment [14], in experiment [15], in [16], in experiment [17] and in experiment [18] was > 100 µM (inactive) each time. For the same compound, the GI50 in experiment [19] was > 100 µM (inactive).
Turning to `Nc1nncc2[nH]cnc12`, the GI50 in [1] is 15 µM (inactive); in experiment [2], 23.4 µM (inactive); in [3], 49.3 µM (inactive); in [4] it was > 79.4 µM (inactive); in experiment [5] it was 41.5 µM (inactive); in [6], > 100 µM (inactive). The GI50 in [7] is 5.09 µM (inactive); in [8] it was > 100 µM (inactive); in experiment [9] it was > 100 µM (inactive); in experiment [10], > 100 µM (inactive); in experiment [11] it was 90.6 µM (inactive); in experiment [12], 94.4 µM (inactive). The GI50 in [13] is 44.7 µM (inactive); in experiment [14], 94 µM (inactive); in [15], > 75.9 µM (inactive); in experiment [16] it was 31 µM (inactive); in [17], 44.1 µM (inactive); in [19] it was 50.1 µM (inactive).
Turning to `CC(=O)NC1C(OCc2ccccc2)OC(CO)C(O)C1OC(C)C(=O)N[C@@H](C)C(=O)N[C@H](CCC(=O)NCCNCCNc1c2ccccc2nc2cccc([N+](=O)[O-])c12)C(N)=O` (stereo partly drawn), the GI50 is 0.308 µM (active) in experiment [1]; < 0.0195 µM (active) in experiment [2]; 0.336 µM (active) in experiment [3]; 0.104 µM (active) in experiment [4]; 0.348 µM (active) in experiment [5]; 0.0794 µM (active) in experiment [6]. In addition, the GI50 in [7] was 0.201 µM (active); in experiment [8], 0.226 µM (active); in [9], 0.29 µM (active); in experiment [10], 0.0244 µM (active); in experiment [11], < 0.01 µM (active); in experiment [12], 0.0982 µM (active). Besides, the GI50 in experiment [13] was 0.0244 µM (active); in [14], 1.73 µM (inactive); in [15], 0.0461 µM (active); in experiment [16], 0.0266 µM (active); in experiment [17], 0.0783 µM (active); in experiment [18] it was 0.022 µM (active). In addition, the GI50 in [19] was 0.0557 µM (active).
As to `COc1ccc(C(SCCO)(c2ccccc2)c2ccccc2)cc1`, the GI50 in [1] is 22.8 µM (inactive); in experiment [2] it was 10.5 µM (inactive); in experiment [3], 16.9 µM (inactive); in experiment [4], 12.8 µM (inactive); in experiment [5], 16.5 µM (inactive); in [6] it was 21.6 µM (inactive). Moreover, the GI50 was 15.5 µM (inactive) in [7]; 14 µM (inactive) in [8]; 15.7 µM (inactive) in experiment [9]; 11 µM (inactive) in experiment [10]; 13.3 µM (inactive) in [11]; 15.6 µM (inactive) in experiment [12]. In addition, the GI50 in [13] was 12.2 µM (inactive); in experiment [14], 14.8 µM (inactive); in experiment [15] it was 9.84 µM (inactive); in experiment [16], 20.6 µM (inactive); in experiment [17], 14.1 µM (inactive); in experiment [18], 16.9 µM (inactive). The GI50 in experiment [19] is 14.1 µM (inactive).
With `Cc1ccc(-c2c3nc(c(-c4ccc(C)cc4)c4ccc([nH]4)c(-c4ccc(OCC5COC(C)(C)O5)cc4)c4nc(c(-c5ccc(C)cc5)c5ccc2[nH]5)C=C4)C=C3)cc1` (stereo not drawn), the GI50 in experiment [1] was > 10 µM (inactive); in experiment [2], > 31.6 µM (inactive); in [3], > 31.6 µM (inactive); in [4], > 31.6 µM (inactive); in [5], > 10 µM (inactive); in [6], > 31.6 µM (inactive). Besides, the GI50 in [7] is > 10 µM (inactive); in experiment [8], > 31.6 µM (inactive); in experiment [9], > 31.6 µM (inactive); in [10] it was > 100 µM (inactive); in experiment [11], > 31.6 µM (inactive); in [12] it was > 31.6 µM (inactive). The GI50 in experiment [13], in experiment [14], in experiment [15], in experiment [16], in experiment [17] and in experiment [18] was > 31.6 µM (inactive) throughout. Moreover, the GI50 in [19] is > 31.6 µM (inactive).
Consider `CCOC(=O)C1(Cc2ccccc2)Cc2ccccc2C1=O` (stereo not drawn), for which the GI50 is 19.1 µM (inactive) in experiment [1]; 33.8 µM (inactive) in [2]; 30.4 µM (inactive) in experiment [3]; 27.7 µM (inactive) in [4]; 30.8 µM (inactive) in [5]; 22 µM (inactive) in [6]. The GI50 is 27.8 µM (inactive) in [7]; 30.8 µM (inactive) in experiment [8]; 16.5 µM (inactive) in [10]; 27.2 µM (inactive) in [11]; 35.1 µM (inactive) in experiment [12]; 23.7 µM (inactive) in experiment [13]. The GI50 in experiment [14] is 21.9 µM (inactive); in experiment [15] it was 28.6 µM (inactive); in experiment [16], 33.7 µM (inactive); in experiment [17], 26.6 µM (inactive); in experiment [18] it was 17.3 µM (inactive); in [19], 28.1 µM (inactive).
In the case of `CC(C)(C)C(=O)CP(=O)(O)O`, the GI50 in [1], in [2], in experiment [3], in experiment [4], in experiment [5] and in experiment [6] was > 100 µM (inactive) throughout. In addition, the GI50 in experiment [7], in experiment [8], in experiment [9], in experiment [10], in [11] and in experiment [12] was > 100 µM (inactive) throughout. The GI50 in experiment [13], in experiment [14], in experiment [15], in experiment [16], in [17] and in experiment [18] was > 100 µM (inactive) throughout. The GI50 in experiment [19] was > 100 µM (inactive).

Values taken from ChEMBL document CHEMBL1201862, “PubChem BioAssay data set” (2004).
